Results as given in ChEMBL document CHEMBL3991601, “The target landscape of clinical kinase drugs” (Science, 2017).
Calls of active or inactive are those of the source.

The molecules below were run against T1, ADP/ATP translocase 2 (Homo sapiens, UniProt P05141).
T1 sequence (P05141 whole entry): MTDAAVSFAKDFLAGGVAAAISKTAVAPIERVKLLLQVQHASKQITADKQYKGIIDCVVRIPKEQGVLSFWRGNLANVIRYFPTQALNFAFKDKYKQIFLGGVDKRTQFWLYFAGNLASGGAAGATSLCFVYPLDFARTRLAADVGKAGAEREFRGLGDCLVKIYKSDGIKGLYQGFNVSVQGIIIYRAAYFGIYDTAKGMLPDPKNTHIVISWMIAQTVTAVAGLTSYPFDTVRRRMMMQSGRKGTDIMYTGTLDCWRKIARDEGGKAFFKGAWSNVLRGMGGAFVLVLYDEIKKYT
Further: in the data inactive means no Kd found up to 30 µM.

| Structure (SMILES) | Kd |
| --- | --- |
| C[C@@H](c1ccc2nccn2c1)n1nnc2ncc(-c3cnn(C)c3)nc21 [SAVOLITINIB] | > 30 µM (inactive) |
| CN1CCC(CNc2ccc3ncc(-c4cccc(OC(F)(F)F)c4)n3n2)CC1 [SGI-1776] | > 30 µM (inactive) |
| C[C@@H]1CN(Cc2ccc(F)cc2)[C@@H](C)CN1C(=O)c1cc2c(C(=O)C(=O)N(C)C)cn(C)c2cc1Cl [TALMAPIMOD] | > 30 µM (inactive) |
| O=c1sn(-c2cccc3ccccc23)c(=O)n1Cc1ccccc1 [TIDEGLUSIB] | > 30 µM (inactive) |
| COc1cc2nccc(Oc3ccc(NC(=O)Nc4cc(C)on4)c(Cl)c3)c2cc1OC [TIVOZANIB] | > 30 µM (inactive) |

What follows are molecules tested against Bone morphogenetic protein receptor type-1A (Homo sapiens, UniProt P36894).
Sequence of Bone morphogenetic protein receptor type-1A (P36894 whole entry): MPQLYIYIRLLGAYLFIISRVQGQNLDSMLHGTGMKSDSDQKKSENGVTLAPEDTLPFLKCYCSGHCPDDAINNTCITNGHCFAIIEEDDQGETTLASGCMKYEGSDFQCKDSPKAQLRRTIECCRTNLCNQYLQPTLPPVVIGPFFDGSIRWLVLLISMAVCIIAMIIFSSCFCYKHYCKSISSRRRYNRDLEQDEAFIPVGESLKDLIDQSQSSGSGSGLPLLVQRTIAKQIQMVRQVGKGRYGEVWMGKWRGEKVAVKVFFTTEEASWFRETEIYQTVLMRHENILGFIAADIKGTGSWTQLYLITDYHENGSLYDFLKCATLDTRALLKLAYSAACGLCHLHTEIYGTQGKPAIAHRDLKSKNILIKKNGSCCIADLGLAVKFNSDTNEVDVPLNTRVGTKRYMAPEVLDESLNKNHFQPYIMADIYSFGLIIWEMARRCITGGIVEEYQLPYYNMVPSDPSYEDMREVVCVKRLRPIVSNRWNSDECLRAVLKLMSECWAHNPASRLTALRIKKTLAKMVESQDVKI

| Structure (SMILES) | Kd |
| --- | --- |
| C[C@@H](c1ccc2nccn2c1)n1nnc2ncc(-c3cnn(C)c3)nc21 [SAVOLITINIB] | > 30 µM (inactive) |
| CN1CCC(CNc2ccc3ncc(-c4cccc(OC(F)(F)F)c4)n3n2)CC1 [SGI-1776] | > 30 µM (inactive) |
| C[C@@H]1CN(Cc2ccc(F)cc2)[C@@H](C)CN1C(=O)c1cc2c(C(=O)C(=O)N(C)C)cn(C)c2cc1Cl [TALMAPIMOD] | > 30 µM (inactive) |
| O=c1sn(-c2cccc3ccccc23)c(=O)n1Cc1ccccc1 [TIDEGLUSIB] | > 30 µM (inactive) |
| COc1cc2nccc(Oc3ccc(NC(=O)Nc4cc(C)on4)c(Cl)c3)c2cc1OC [TIVOZANIB] | > 30 µM (inactive) |

These molecules were tested against T2, Ribosyldihydronicotinamide dehydrogenase [quinone] (Homo sapiens, UniProt P16083).
T2 sequence (P16083 whole entry): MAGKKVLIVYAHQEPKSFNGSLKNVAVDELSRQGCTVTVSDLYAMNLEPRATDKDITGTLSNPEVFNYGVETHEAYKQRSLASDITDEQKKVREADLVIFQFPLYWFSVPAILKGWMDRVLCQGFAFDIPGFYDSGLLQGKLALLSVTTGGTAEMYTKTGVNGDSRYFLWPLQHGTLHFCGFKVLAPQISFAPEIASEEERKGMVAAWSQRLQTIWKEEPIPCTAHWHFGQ

| Structure (SMILES) | Kd |
| --- | --- |
| C[C@@H](c1ccc2nccn2c1)n1nnc2ncc(-c3cnn(C)c3)nc21 [SAVOLITINIB] | 0.206 µM (active) |
| CN1CCC(CNc2ccc3ncc(-c4cccc(OC(F)(F)F)c4)n3n2)CC1 [SGI-1776] | > 30 µM (inactive) |
| C[C@@H]1CN(Cc2ccc(F)cc2)[C@@H](C)CN1C(=O)c1cc2c(C(=O)C(=O)N(C)C)cn(C)c2cc1Cl [TALMAPIMOD] | 9.92 µM (active) |
| O=c1sn(-c2cccc3ccccc23)c(=O)n1Cc1ccccc1 [TIDEGLUSIB] | > 30 µM (inactive) |
| COc1cc2nccc(Oc3ccc(NC(=O)Nc4cc(C)on4)c(Cl)c3)c2cc1OC [TIVOZANIB] | > 30 µM (inactive) |

What follows are molecules tested against Serine/threonine-protein kinase/endoribonuclease IRE1 (Homo sapiens, UniProt O75460).
Sequence of Serine/threonine-protein kinase/endoribonuclease IRE1 (O75460 whole entry): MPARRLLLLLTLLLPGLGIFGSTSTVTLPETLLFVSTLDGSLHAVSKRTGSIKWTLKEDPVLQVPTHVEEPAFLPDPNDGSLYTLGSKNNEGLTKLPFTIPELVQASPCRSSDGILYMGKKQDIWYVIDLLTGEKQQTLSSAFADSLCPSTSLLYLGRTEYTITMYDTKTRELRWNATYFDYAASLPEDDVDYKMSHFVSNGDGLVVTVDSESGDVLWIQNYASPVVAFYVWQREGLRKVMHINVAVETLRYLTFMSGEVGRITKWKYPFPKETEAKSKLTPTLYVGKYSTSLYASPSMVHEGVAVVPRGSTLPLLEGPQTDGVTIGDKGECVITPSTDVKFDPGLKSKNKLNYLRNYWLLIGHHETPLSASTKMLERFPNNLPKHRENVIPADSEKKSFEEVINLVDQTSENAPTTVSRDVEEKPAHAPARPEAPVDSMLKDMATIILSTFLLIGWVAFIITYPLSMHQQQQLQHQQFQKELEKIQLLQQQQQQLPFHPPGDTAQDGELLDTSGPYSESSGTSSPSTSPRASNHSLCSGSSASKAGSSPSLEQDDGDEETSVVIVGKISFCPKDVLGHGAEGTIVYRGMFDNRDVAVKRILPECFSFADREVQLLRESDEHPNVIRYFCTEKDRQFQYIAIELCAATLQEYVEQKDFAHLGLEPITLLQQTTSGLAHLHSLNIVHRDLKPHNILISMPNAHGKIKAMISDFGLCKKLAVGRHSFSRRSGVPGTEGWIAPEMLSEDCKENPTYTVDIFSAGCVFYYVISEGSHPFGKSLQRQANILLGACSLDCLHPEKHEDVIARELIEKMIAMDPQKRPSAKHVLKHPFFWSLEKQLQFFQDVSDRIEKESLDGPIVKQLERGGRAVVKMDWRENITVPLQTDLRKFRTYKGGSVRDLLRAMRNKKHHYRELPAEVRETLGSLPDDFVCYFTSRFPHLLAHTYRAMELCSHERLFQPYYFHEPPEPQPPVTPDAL

| Structure (SMILES) | Kd |
| --- | --- |
| C[C@@H](c1ccc2nccn2c1)n1nnc2ncc(-c3cnn(C)c3)nc21 [SAVOLITINIB] | > 30 µM (inactive) |
| CN1CCC(CNc2ccc3ncc(-c4cccc(OC(F)(F)F)c4)n3n2)CC1 [SGI-1776] | > 30 µM (inactive) |
| C[C@@H]1CN(Cc2ccc(F)cc2)[C@@H](C)CN1C(=O)c1cc2c(C(=O)C(=O)N(C)C)cn(C)c2cc1Cl [TALMAPIMOD] | > 30 µM (inactive) |
| O=c1sn(-c2cccc3ccccc23)c(=O)n1Cc1ccccc1 [TIDEGLUSIB] | > 30 µM (inactive) |
| COc1cc2nccc(Oc3ccc(NC(=O)Nc4cc(C)on4)c(Cl)c3)c2cc1OC [TIVOZANIB] | > 30 µM (inactive) |

These molecules were tested against Casein kinase II subunit alpha' (Homo sapiens, UniProt P19784).
Sequence of Casein kinase II subunit alpha' (P19784 whole entry): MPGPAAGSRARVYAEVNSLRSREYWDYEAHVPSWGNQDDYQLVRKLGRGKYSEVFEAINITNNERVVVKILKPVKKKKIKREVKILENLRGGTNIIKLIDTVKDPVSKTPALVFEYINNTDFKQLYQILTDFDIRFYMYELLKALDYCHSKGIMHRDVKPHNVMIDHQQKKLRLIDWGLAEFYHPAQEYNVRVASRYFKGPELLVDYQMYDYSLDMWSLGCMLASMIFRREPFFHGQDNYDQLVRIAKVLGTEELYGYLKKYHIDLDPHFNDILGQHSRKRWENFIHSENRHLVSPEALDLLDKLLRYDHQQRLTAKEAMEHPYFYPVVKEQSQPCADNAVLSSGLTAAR

| Structure (SMILES) | Kd |
| --- | --- |
| C[C@@H](c1ccc2nccn2c1)n1nnc2ncc(-c3cnn(C)c3)nc21 [SAVOLITINIB] | > 30 µM (inactive) |
| CN1CCC(CNc2ccc3ncc(-c4cccc(OC(F)(F)F)c4)n3n2)CC1 [SGI-1776] | 7.92 µM (active) |
| C[C@@H]1CN(Cc2ccc(F)cc2)[C@@H](C)CN1C(=O)c1cc2c(C(=O)C(=O)N(C)C)cn(C)c2cc1Cl [TALMAPIMOD] | > 30 µM (inactive) |
| O=c1sn(-c2cccc3ccccc23)c(=O)n1Cc1ccccc1 [TIDEGLUSIB] | > 30 µM (inactive) |
| COc1cc2nccc(Oc3ccc(NC(=O)Nc4cc(C)on4)c(Cl)c3)c2cc1OC [TIVOZANIB] | > 30 µM (inactive) |

The molecules below were run against Serine/threonine-protein kinase 26 (Homo sapiens, UniProt Q9P289).
Sequence of Serine/threonine-protein kinase 26 (Q9P289 whole entry): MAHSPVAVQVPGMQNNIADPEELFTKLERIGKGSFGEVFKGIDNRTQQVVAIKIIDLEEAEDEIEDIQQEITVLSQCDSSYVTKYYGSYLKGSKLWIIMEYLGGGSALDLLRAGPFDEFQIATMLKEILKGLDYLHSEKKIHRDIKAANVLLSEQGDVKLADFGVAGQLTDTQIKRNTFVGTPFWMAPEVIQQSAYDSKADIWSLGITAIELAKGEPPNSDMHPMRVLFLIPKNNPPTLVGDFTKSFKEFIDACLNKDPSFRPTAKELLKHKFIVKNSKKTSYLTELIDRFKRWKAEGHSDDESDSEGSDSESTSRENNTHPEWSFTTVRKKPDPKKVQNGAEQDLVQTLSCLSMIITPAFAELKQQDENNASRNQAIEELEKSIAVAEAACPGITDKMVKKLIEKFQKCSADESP

| Structure (SMILES) | Kd |
| --- | --- |
| C[C@@H](c1ccc2nccn2c1)n1nnc2ncc(-c3cnn(C)c3)nc21 [SAVOLITINIB] | > 30 µM (inactive) |
| CN1CCC(CNc2ccc3ncc(-c4cccc(OC(F)(F)F)c4)n3n2)CC1 [SGI-1776] | > 30 µM (inactive) |
| C[C@@H]1CN(Cc2ccc(F)cc2)[C@@H](C)CN1C(=O)c1cc2c(C(=O)C(=O)N(C)C)cn(C)c2cc1Cl [TALMAPIMOD] | > 30 µM (inactive) |
| O=c1sn(-c2cccc3ccccc23)c(=O)n1Cc1ccccc1 [TIDEGLUSIB] | > 30 µM (inactive) |
| COc1cc2nccc(Oc3ccc(NC(=O)Nc4cc(C)on4)c(Cl)c3)c2cc1OC [TIVOZANIB] | > 30 µM (inactive) |

The molecules below were run against T3, Probable ATP-dependent RNA helicase DDX6 (Homo sapiens, UniProt P26196).
T3 sequence (P26196 whole entry): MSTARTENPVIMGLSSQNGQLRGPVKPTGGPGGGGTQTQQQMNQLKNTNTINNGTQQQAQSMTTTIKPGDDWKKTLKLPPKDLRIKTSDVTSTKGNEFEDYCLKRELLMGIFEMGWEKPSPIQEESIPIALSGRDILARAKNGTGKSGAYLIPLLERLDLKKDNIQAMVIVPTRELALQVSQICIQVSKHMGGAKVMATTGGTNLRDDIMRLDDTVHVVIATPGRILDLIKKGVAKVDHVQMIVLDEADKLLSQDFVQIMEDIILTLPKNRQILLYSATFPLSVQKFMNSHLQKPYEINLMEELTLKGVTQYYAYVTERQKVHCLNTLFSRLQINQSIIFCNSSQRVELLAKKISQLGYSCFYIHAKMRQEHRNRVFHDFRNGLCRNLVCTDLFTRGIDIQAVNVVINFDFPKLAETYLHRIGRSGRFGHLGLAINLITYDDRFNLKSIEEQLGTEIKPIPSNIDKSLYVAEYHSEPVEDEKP

| Structure (SMILES) | Kd |
| --- | --- |
| C[C@@H](c1ccc2nccn2c1)n1nnc2ncc(-c3cnn(C)c3)nc21 [SAVOLITINIB] | > 30 µM (inactive) |
| CN1CCC(CNc2ccc3ncc(-c4cccc(OC(F)(F)F)c4)n3n2)CC1 [SGI-1776] | > 30 µM (inactive) |
| C[C@@H]1CN(Cc2ccc(F)cc2)[C@@H](C)CN1C(=O)c1cc2c(C(=O)C(=O)N(C)C)cn(C)c2cc1Cl [TALMAPIMOD] | > 30 µM (inactive) |
| O=c1sn(-c2cccc3ccccc23)c(=O)n1Cc1ccccc1 [TIDEGLUSIB] | > 30 µM (inactive) |
| COc1cc2nccc(Oc3ccc(NC(=O)Nc4cc(C)on4)c(Cl)c3)c2cc1OC [TIVOZANIB] | > 30 µM (inactive) |

What follows are molecules tested against Actin-related protein 2 (Homo sapiens, UniProt P61160).

| Structure (SMILES) | Kd |
| --- | --- |
| C[C@@H](c1ccc2nccn2c1)n1nnc2ncc(-c3cnn(C)c3)nc21 [SAVOLITINIB] | > 30 µM (inactive) |
| CN1CCC(CNc2ccc3ncc(-c4cccc(OC(F)(F)F)c4)n3n2)CC1 [SGI-1776] | > 30 µM (inactive) |
| C[C@@H]1CN(Cc2ccc(F)cc2)[C@@H](C)CN1C(=O)c1cc2c(C(=O)C(=O)N(C)C)cn(C)c2cc1Cl [TALMAPIMOD] | 0.004 µM |
| O=c1sn(-c2cccc3ccccc23)c(=O)n1Cc1ccccc1 [TIDEGLUSIB] | > 30 µM (inactive) |
| COc1cc2nccc(Oc3ccc(NC(=O)Nc4cc(C)on4)c(Cl)c3)c2cc1OC [TIVOZANIB] | > 30 µM (inactive) |

What follows are molecules tested against T4, Structural maintenance of chromosomes protein 1A (Homo sapiens, UniProt Q14683).
T4 sequence (Q14683 whole entry): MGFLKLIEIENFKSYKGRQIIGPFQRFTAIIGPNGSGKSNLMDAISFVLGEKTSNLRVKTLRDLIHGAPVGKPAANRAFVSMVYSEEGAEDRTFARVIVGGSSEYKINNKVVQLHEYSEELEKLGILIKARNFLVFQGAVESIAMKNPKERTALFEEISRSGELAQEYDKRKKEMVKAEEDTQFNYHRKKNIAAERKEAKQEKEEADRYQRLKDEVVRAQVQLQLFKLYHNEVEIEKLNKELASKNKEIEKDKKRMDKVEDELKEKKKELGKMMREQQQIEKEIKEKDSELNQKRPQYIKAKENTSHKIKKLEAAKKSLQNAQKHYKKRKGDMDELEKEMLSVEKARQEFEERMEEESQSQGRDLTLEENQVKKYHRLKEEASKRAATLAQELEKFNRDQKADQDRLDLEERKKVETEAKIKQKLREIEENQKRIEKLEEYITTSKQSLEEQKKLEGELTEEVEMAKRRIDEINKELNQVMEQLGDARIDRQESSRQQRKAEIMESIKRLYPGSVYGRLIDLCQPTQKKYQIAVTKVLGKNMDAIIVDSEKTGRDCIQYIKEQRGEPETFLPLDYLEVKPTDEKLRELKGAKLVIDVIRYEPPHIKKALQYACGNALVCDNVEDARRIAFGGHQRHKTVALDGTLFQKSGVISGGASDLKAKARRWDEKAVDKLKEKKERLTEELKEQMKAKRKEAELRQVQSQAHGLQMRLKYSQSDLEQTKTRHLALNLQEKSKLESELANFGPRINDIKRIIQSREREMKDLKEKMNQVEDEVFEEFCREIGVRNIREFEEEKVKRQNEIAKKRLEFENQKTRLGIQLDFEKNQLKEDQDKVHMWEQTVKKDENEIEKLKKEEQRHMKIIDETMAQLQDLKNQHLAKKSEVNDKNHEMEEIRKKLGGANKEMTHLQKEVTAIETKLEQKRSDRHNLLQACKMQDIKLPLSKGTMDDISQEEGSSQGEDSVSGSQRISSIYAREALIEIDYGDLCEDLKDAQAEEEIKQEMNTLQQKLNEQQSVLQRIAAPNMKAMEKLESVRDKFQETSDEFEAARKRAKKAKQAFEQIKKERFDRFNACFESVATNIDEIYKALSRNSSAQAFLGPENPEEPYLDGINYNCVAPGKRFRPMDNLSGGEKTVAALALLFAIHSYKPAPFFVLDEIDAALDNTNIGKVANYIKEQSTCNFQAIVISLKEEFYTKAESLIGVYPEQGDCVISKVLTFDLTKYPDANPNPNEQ

| Structure (SMILES) | Kd |
| --- | --- |
| C[C@@H](c1ccc2nccn2c1)n1nnc2ncc(-c3cnn(C)c3)nc21 [SAVOLITINIB] | > 30 µM (inactive) |
| CN1CCC(CNc2ccc3ncc(-c4cccc(OC(F)(F)F)c4)n3n2)CC1 [SGI-1776] | > 30 µM (inactive) |
| C[C@@H]1CN(Cc2ccc(F)cc2)[C@@H](C)CN1C(=O)c1cc2c(C(=O)C(=O)N(C)C)cn(C)c2cc1Cl [TALMAPIMOD] | > 30 µM (inactive) |
| O=c1sn(-c2cccc3ccccc23)c(=O)n1Cc1ccccc1 [TIDEGLUSIB] | > 30 µM (inactive) |
| COc1cc2nccc(Oc3ccc(NC(=O)Nc4cc(C)on4)c(Cl)c3)c2cc1OC [TIVOZANIB] | > 30 µM (inactive) |

Each molecule was assayed against cAMP-dependent protein kinase catalytic subunit gamma (Homo sapiens, UniProt P22612).
Sequence of cAMP-dependent protein kinase catalytic subunit gamma (P22612 whole entry): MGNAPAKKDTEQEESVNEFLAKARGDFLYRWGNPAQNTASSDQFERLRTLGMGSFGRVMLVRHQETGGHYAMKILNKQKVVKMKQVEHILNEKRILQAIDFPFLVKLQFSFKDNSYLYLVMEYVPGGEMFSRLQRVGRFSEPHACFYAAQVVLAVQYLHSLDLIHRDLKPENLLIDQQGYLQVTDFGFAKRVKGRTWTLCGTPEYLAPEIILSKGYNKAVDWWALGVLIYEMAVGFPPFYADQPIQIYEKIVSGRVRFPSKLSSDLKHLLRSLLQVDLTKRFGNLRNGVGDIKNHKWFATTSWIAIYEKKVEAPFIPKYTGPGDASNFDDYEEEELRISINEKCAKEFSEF

| Structure (SMILES) | Kd |
| --- | --- |
| C[C@@H](c1ccc2nccn2c1)n1nnc2ncc(-c3cnn(C)c3)nc21 [SAVOLITINIB] | > 30 µM (inactive) |
| CN1CCC(CNc2ccc3ncc(-c4cccc(OC(F)(F)F)c4)n3n2)CC1 [SGI-1776] | > 30 µM (inactive) |
| C[C@@H]1CN(Cc2ccc(F)cc2)[C@@H](C)CN1C(=O)c1cc2c(C(=O)C(=O)N(C)C)cn(C)c2cc1Cl [TALMAPIMOD] | > 30 µM (inactive) |
| O=c1sn(-c2cccc3ccccc23)c(=O)n1Cc1ccccc1 [TIDEGLUSIB] | > 30 µM (inactive) |
| COc1cc2nccc(Oc3ccc(NC(=O)Nc4cc(C)on4)c(Cl)c3)c2cc1OC [TIVOZANIB] | > 30 µM (inactive) |
